US20260250320A1, “LIPIDATED PEPTIDE INHIBITORS OF INTERLEUKIN-23 RECEPTOR” (Janssen Pharmaceutica NV, priority 2023, published 2026)
*1 amine or outer side, *2 acyl side, *3 side chain or, on linkers, in order; H or OH if unused. Where a SMILES comes first, the peptide text is derived from it. Bridges are numbered along the chain shown (N, C = ends). Roman numbers before positions name the chains, in order. Side-chain parts run from the residue outwards. [ ]: non-standard residue; d: D form. The star is where a group is joined. X8 = CC(=O)[C@H](CCCCNC(=O)CC[C@H](NC(=O)CCCCCCCCCCCCCCCCC(=O)O)C(=O)O)N(C)*; X19 = CC(C)(S[*:2])[C@H](N[*:3])C(=O)C[C@@H](Cc1ccc(OCCN)cc1)C(=O)[*:1]; Me3N+CH2CH2(OCH2CH2)4CO = C[N+](C)(C)CCOCCOCCOCCOCCC(=O)*; Me3N+(CH2)2O(CH2)2O(CH2)2CO = C[N+](C)(C)CCOCCOCCC(=O)*; PEG12 = NCCOCCOCCOCCOCCOCCOCCOCCOCCOCCOCCOCCOCCC(=O)O; CH2CH2OCH2CH2OCH2CH2NMe3+ = C[N+](C)(C)CCOCCOCC*; NH(CH2CH2O)2CH2CH2NMe3+ = C[N+](C)(C)CCOCCOCCN*; Trp(7-Me) = Cc1cccc2c(C[C@H](N)C(=O)O)c[nH]c12; C18 diacid = O=C(O)CCCCCCCCCCCCCCCCC(=O)*; X6 = CN(CC[C@H](N[*:1])C(=O)[*:2])[*:3]; γGlu = O=C(O)[C@H](CCC(=O)[*:2])N[*:1]; 2Nal = N[C@@H](Cc1ccc2ccccc2c1)C(=O)O; AEF = NCCOc1ccc(C[C@H](N)C(=O)O)cc1; X7 = C[N+](C)(C)CCOCCOCCOCCOC(=O)*; 3Pal = N[C@@H](Cc1cccnc1)C(=O)O; Lys(Me) = CNCCCC[C@H](N)C(=O)O; Pen = CC(C)(S)[C@H](N)C(=O)O; Thp = NC1(C(=O)O)CCOCC1; X1 = C[N+](C)(C)CCCCC*; AEEA = NCCOCCOCC(=O)O; Sar = CNCC(=O)O

How the values were obtained:
[1] = target: T1, IL-23R (Homo sapiens, UniProt Q5VWK5); assay: IL23R Reporter Assay; assay type: cell-based; settings: HEK293 cells containing IL-23R, IL-12Rβ1 and STAT-inducible firefly luciferase reporter; 10 ng/mL IL-23 (EC90); 5 h
T1 construct: HEK293 cells containing IL-23R, IL-12Rβ1 and a firefly luciferase reporter gene driven by a STAT-inducible promoter (Promega); host or cells: HEK293
T1 sequence (Q5VWK5 24-629): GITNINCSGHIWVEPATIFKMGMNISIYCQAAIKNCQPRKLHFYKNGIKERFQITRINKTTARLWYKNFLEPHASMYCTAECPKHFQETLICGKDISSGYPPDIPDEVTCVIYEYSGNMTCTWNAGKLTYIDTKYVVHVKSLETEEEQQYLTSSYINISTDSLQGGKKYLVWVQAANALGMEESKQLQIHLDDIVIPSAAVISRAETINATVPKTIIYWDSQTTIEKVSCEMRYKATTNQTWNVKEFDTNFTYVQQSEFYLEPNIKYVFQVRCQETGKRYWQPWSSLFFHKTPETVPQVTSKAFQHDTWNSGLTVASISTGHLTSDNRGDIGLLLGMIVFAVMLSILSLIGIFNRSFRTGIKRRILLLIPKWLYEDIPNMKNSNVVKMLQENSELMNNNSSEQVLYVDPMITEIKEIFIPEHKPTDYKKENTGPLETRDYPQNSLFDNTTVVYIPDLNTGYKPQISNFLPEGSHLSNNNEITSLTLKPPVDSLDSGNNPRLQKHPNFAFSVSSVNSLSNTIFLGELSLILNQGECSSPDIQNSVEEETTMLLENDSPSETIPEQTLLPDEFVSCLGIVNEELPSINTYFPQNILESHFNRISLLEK
How it was run: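 HEK293 cells carrying IL-23R, IL-12Rβ1 and a STAT-driven firefly luciferase reporter (4000 cells/well) received compound, then 10 ng/mL IL-23 solution (EC90), and were incubated for 5 h at 37° C. BioGlo luminescence was normalised to IL-23 alone (0%) and 30 μM control inhibitor (100%). IC50 came from a 4-parameter Hill fit.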

[2] = system: IL-23-stimulated phosphorylated STAT3 in peripheral blood mononuclear cells (PBMCs); assay: PBMC pSTAT3 Assay; assay type: cell-based; settings: PBMCs from healthy donors; 30 min preincubation with peptide; IL-23 5 ng/mL for 30 min; phospho-STAT3 by MSD
How it was run: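 Healthy-donor PBMCs expanded 4 days on anti-CD3 with 100 ng/mL IL-1β, starved ~4 h in RPMI-0.1% BSA, preincubated 30 min with peptide, then stimulated 30 min at 37 °C with 5 ng/mL IL-23. Lysate pSTAT3 measured by MSD phospho-STAT panel; IC50 derived.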

Row | SMILES | IC50 [1] [nM] | IC50 [2] [nM]
1 | CC(=O)N[C@H](CCCNC(=N)N)C(=O)N[C@@H]1C(=O)N[C@@H](CC(N)=O)C(=O)N[C@@H]([C@@H](C)O)C(=O)N[C@@H](Cc2c[nH]c3c(C)cccc23)C(=O)N[C@@H](CCCCN(C)C(=O)CCOCCOCC[N+](C)(C)C)C(=O)N[C@H](C(=O)N[C@@H](Cc2ccc(OCCN)cc2)C(=O)N[C@@H](Cc2ccc3ccccc3c2)C(=O)NC2(C(=O)N[C@@H](CCC(=O)O)C(=O)N[C@@H](CC(N)=O)C(=O)N[C@@H](Cc3cccnc3)C(=O)N(C)CC(=O)N[C@@H](CCCCNC(=O)COCCOCCNC(=O)COCCOCCNC(=O)CC[C@H](NC(=O)CCCCCCCCCCCCCCCCC(=O)O)C(=O)O)C(N)=O)CCOCC2)C(C)(C)SSC1(C)C [compound 70, MeCO-r-Pen(3)-N-T-7MeW-K(NMecPEG3a)-Pen(3)-AEF-2Nal-THP-E-N-3Pya-Sar-K(PEG2PEG2C18OH)-CONH2] (Ac-[dR][Pen]NT[Trp(7-Me)][Lys(Me)](Me3N+(CH2)2O(CH2)2O(CH2)2CO)[Pen][AEF][2Nal][Thp]EN[3Pal][Sar]K([AEEA-AEEA-γGlu-C18 diacid])-NH2; disulfide 2-7) | < 50 | < 0.5
2 | CC(=O)NCCCC[C@@H]1NC(=O)[C@H](Cc2c[nH]c3c(C)cccc23)NC(=O)[C@H]([C@@H](C)O)NC(=O)[C@H](CC(N)=O)NC(=O)[C@@H](NC(C)=O)C(C)(C)SSC(C)(C)[C@@H](C(=O)N[C@@H](Cc2ccc(OCCN)cc2)C(=O)N[C@@H](Cc2ccc3ccccc3c2)C(=O)NC2(C(=O)N[C@@H](CCCCNC(C)=O)C(=O)N[C@@H](CC(N)=O)C(=O)N[C@@H](Cc3cccnc3)C(=O)N(C)CC(=O)N[C@@H](CCCCNC(=O)CCOCCOCCOCCOCCOCCOCCOCCOCCOCCOCCOCCOCCNC(=O)CC[C@H](NC(=O)CCCCCCCCCCCCCCCCCCC(=O)O)C(=O)O)C(N)=O)CCOCC2)NC1=O [compound 101, MeCO-Pen(3)-N-T-7MeW-K(Ac)-Pen(3)-AEF-2Nal-THP-K(Ac)-N-3Pya-Sar-K(PEG12gEC20OH)-CONH2] | < 50 | < 0.5
3 | CC(=O)NCCCC[C@@H]1NC(=O)[C@H](Cc2c[nH]c3c(C)cccc23)NC(=O)[C@H]([C@@H](C)O)NC(=O)[C@H](CC(N)=O)NC(=O)[C@@H](NC(C)=O)C(C)(C)SSC(C)(C)[C@@H](C(=O)N[C@@H](Cc2ccc(OCCN)cc2)C(=O)N[C@@H](Cc2ccc3ccccc3c2)C(=O)NC2(C(=O)N[C@@H](CCC(=O)O)C(=O)N[C@@H](CC(N)=O)C(=O)N[C@@H](Cc3cccnc3)C(=O)N(C)CC(=O)N[C@@H](CCCCNC(=O)COCCOCCNC(=O)COCCOCCNC(=O)CC[C@H](NC(=O)CCCCCCCCCCCCCCCCC(=O)O)C(=O)O)C(N)=O)CCOCC2)NC1=O [compound 27, MeCO-Pen(3)-N-T-7MeW-K(Ac)-Pen(3)-AEF-2Nal-THP-E-N-3Pya-Sar-K(PEG2PEG2gEC18OH)-CONH2] | < 50 | < 0.5
4 | CC(=O)N(C)CCCC[C@@H]1NC(=O)[C@H](Cc2c[nH]c3c(C)cccc23)NC(=O)[C@H]([C@@H](C)O)NC(=O)[C@H](CC(=O)N(C)C)NC(=O)[C@@H](N)C(C)(C)SSC(C)(C)[C@@H](C(=O)N[C@@H](Cc2ccc(OCCOCCOCC[N+](C)(C)C)cc2)C(=O)N[C@@H](Cc2ccc3ccccc3c2)C(=O)NC2(C(=O)N[C@@H](CCCCN(C)C(C)=O)C(=O)N[C@@H](CC(N)=O)C(=O)N[C@@H](Cc3cccnc3)C(=O)N(C)CC(=O)N[C@@H](CCCCNC(=O)COCCOCCNC(=O)COCCOCCNC(=O)CC[C@H](NC(=O)CCCCCCCCCCCCCCCCC(=O)O)C(=O)O)C(=O)N(C)C)CCOCC2)NC1=O [compound 148, cPEG3aCO-Pen(3)-N(N(Me)2)-T-7MeW-K(NMeAc)-Pen(3)-APEC3F-2Nal-THP-K(NMeAc)-N-3Pya-Sar-K(PEG2PEG2gEC18OH)-CON(Me)2] (H-[Pen]D(NMe2)T[Trp(7-Me)][Lys(Me)](Ac)[Pen]Y(CH2CH2OCH2CH2OCH2CH2NMe3+)[2Nal][Thp][Lys(Me)](Ac)N[3Pal][Sar]K([AEEA-AEEA-γGlu-C18 diacid])-NMe2; disulfide 1-6) | 50 to 500 | < 0.5
5 | CC(=O)NCCCC[C@@H]1NC(=O)[C@H](Cc2c[nH]c3c(C)cccc23)NC(=O)[C@H]([C@@H](C)O)NC(=O)[C@H](CC(N)=O)NC(=O)[C@@H](NC(C)=O)C(C)(C)SSC(C)(C)[C@@H](C(=O)C[C@@H](Cc2ccc(OCCN)cc2)C(=O)N[C@@H](Cc2ccc3ccccc3c2)C(=O)NC2(C(=O)N[C@@H](CCCCNC(=O)COCCOCCNC(=O)COCCOCCNC(=O)CC[C@H](NC(=O)CCCCCCCCCCCCCCCCC(=O)O)C(=O)O)C(=O)N[C@@H](CC(N)=O)C(=O)N[C@@H](Cc3cccnc3)C(=O)N(C)CC(=O)NCCOCCOCC[N+](C)(C)C)CCOCC2)NC1=O [compound 64, MeCO-Pen(3)-N-T-7MeW-K(Ac)-Pen(3)-AEF-2Nal-THP-K(PEG2PEG2gEC18OH)-N-3Pya-Sar-CONH(PEG3a)] (I: [2Nal][Thp]K([AEEA-AEEA-γGlu-C18 diacid])N[3Pal][Sar]-{NH(CH2CH2O)2CH2CH2NMe3+} / II: Ac-[Pen]NT[Trp(7-Me)]K(Ac); linker I:N-II:1-II:C via X19) | ≥ 500 | 0.5 to 5
6 | CC(=O)N(C)CCCC[C@@H]1NC(=O)[C@H](Cc2c[nH]c3c(C)cccc23)NC(=O)[C@H]([C@@H](C)O)NC(=O)[C@H](CC(=O)N(C)C)NC(=O)[C@@H](NC(=O)COCCOCCNC(=O)COCCOCCNC(=O)CC[C@H](NC(=O)CCCCCCCCCCCCCCCCC(=O)O)C(=O)O)C(C)(C)SSC(C)(C)[C@@H](C(=O)N[C@@H](Cc2ccc(OCCCCC[N+](C)(C)C)cc2)C(=O)N[C@@H](Cc2ccc3ccccc3c2)C(=O)NC2(C(=O)N[C@@H](CCCCN(C)C(C)=O)C(=O)N[C@@H](CC(N)=O)C(=O)N[C@@H](Cc3cccnc3)C(=O)N(C)CC(=O)N(C)C)CCOCC2)NC1=O [compound 118, HOC18gEPEG2PEG2CO-Pen(3)-N(N(Me)2)-T-7MeW-K(NMeAc)-Pen(3)-TMAPF-2Nal-THP-K(NMeAc)-N-3Pya-Sar-CON(Me)2] ({C18 diacid-γGlu-AEEA-AEEA}-[Pen]D(NMe2)T[Trp(7-Me)][Lys(Me)](Ac)[Pen]Y(X1)[2Nal][Thp][Lys(Me)](Ac)N[3Pal][Sar]-NMe2; disulfide 1-6) | < 50 | < 0.5
7 | CC(=O)[C@H](CCCCNC(=O)CC[C@H](NC(=O)CCCCCCCCCCCCCCCCC(=O)O)C(=O)O)N(C)C(=O)[C@H](Cc1cccnc1)NC(=O)[C@H](CC(N)=O)NC(=O)[C@H](CCC(=O)O)NC(=O)C1(NC(=O)[C@H](Cc2ccc3ccccc3c2)NC(=O)[C@H](Cc2ccc(OCCN)cc2)NC(=O)[C@H]2NC(=O)[C@H](CCN(C)C(=O)OCCOCCOCCOCC[N+](C)(C)C)NC(=O)[C@H](Cc3c[nH]c4c(C)cccc34)NC(=O)[C@H]([C@@H](C)O)NC(=O)[C@H](CC(=O)N(C)C)NC(=O)[C@@H](NC(=O)CCOCCOCCOCCOCC[N+](C)(C)C)C(C)(C)SSC2(C)C)CCOCC1 [compound 106, cPEG5aCO-Pen(3)-N(N(Me)2)-T-7MeW-Dab(NMecPEG5a)-Pen(3)-AEF-2Nal-THP-E-N-3Pya-NMeK(gEC18OH)-CONH2] ({Me3N+CH2CH2(OCH2CH2)4CO}-[Pen]D(NMe2)T[Trp(7-Me)][X6](X7)[Pen][AEF][2Nal][Thp]EN[3Pal]-X8; disulfide 1-6) | 50 to 500 | 0.5 to 5
8 | CC(=O)N(C)CCCC[C@@H]1NC(=O)[C@H](Cc2c[nH]c3c(C)cccc23)NC(=O)[C@H]([C@@H](C)O)NC(=O)[C@H](CC(=O)N(C)C)NC(=O)[C@@H](NC(=O)CCOCCOCCOCCOCCOCCOCCOCCOCCOCCOCCOCCOCCNC(=O)CC[C@H](NC(=O)CCCCCCCCCCCCCCCCC(=O)O)C(=O)O)C(C)(C)SSC(C)(C)[C@@H](C(=O)N[C@@H](Cc2ccc(OCCOCCOCC[N+](C)(C)C)cc2)C(=O)N[C@@H](Cc2ccc3ccccc3c2)C(=O)NC2(C(=O)N[C@@H](CCCCN(C)C(C)=O)C(=O)N[C@@H](CC(N)=O)C(=O)N[C@@H](Cc3cccnc3)C(=O)N(C)CC(=O)N(C)C)CCOCC2)NC1=O [compound 108, HOC18gEPEG12CO-Pen(3)-N(N(Me)2)-T-7MeW-K(NMeAc)-Pen(3)-APEG3F-2Nal-THP-K(NMeAc)-N-3Pya-Sar-CON(Me)2] ({C18 diacid-γGlu-PEG12}-[Pen]D(NMe2)T[Trp(7-Me)][Lys(Me)](Ac)[Pen]Y(CH2CH2OCH2CH2OCH2CH2NMe3+)[2Nal][Thp][Lys(Me)](Ac)N[3Pal][Sar]-NMe2; disulfide 1-6) | < 50 | < 0.5
